This note sets out measurements from PubChem BioAssay (NCI).

Several values for one entry are separate records, joined by “and”; a condition that tells them apart may be missing. Equal entries are not always repeated.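 Dose response: 5 concentrations. Exposure: 48 h. Format: 96-well plates. Endpoint: linear interpolation; highest concentration if not reached. GI50 = concentration required for 50% inhibition of growth. At the TGI there is no net growth.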

Holding throughout (experiment): growth of human tumour cells (NCI), 48 h
For assay [1], the system named is M19-MEL melanoma.
The test system of assay [2] is LXFL 529 NSCLC.
In assay [3] the test system is HCC-2998 colon.
In assay [4] the test system is COLO 205 colon.
For assay [5], the system named is DLD-1 colon.
For assay [6], the system named is KM20L2 colon.
For assay [7], the system named is HL-60(TB) leukemia.
The test system of assay [8] is HCT-116 colon.
Assay [9] deals with UO-31 renal.
Assay [10] has as its system MDA-MB-435.

As for `O=C(O/N=C1/CCCC/C1=C\c1ccccc1)c1ccccc1`, the TGI in assay [1], in [2], in assay [3], in assay [4], in assay [5] and in assay [6] was over 100 µM each time. Besides, the TGI in assay [7] was 40.2 µM; in [8] it was over 100 µM; in assay [9], over 100 µM.

For the compound `CC(=O)Nc1ccc(C(=O)NN2C(=O)C(Cl)C2c2ccccc2)cc1` (configuration not stated), the TGI in [1], in assay [2], in assay [4], in [5], in assay [6] and in assay [7] was over 100 µM in each case. For the same compound, the TGI in assay [8] and in assay [9] was over 100 µM in each case.

`O=C1OC(c2ccccc2)=N/C1=C/C=C/c1ccco1`: the TGI in [1], in assay [2], in [3], in assay [4], in assay [5] and in assay [6] was over 100 µM in each case. For the same compound, the TGI in [9] is over 100 µM.

With `O=[N+]([O-])c1nccn1CC(O)c1ccc(F)cc1` (configuration not stated), the TGI in assay [1], in [2], in assay [4], in [6], in assay [7] and in [9] was over 100 µM throughout.

`CCOC(=O)Oc1c(OC)cc(C(=O)NC2CCc3cc(OC)c(OC)c(OC)c3-c3ccc(SC)c(=O)cc32)cc1OC` (configuration not stated): the GI50 in assay [1] was under 7 nM; in assay [2], under 0.007 µM; in assay [3], 0.0156 µM; in [4], 0.0138 µM; in assay [5] it was 22.3 nM; in [6], 11.9 nM. In [8], the GI50 is under 0.007 µM. In addition, the TGI in assay [1] is over 70 µM; in [2], 42.1 µM; in assay [3], 0.187 µM and 0.039 µM; in [4], 0.191 µM and 0.0613 µM; in assay [5], over 70 µM; in assay [8] it was 0.311 µM and 0.0975 µM. In assay [9], the TGI was over 70 µM.

For the compound `C=C(CCCCC)CN1CCCC1[C@@](C)(O)CC(=O)OCC` (some centres not stated), the TGI in assay [1], in assay [2], in assay [3], in [4], in [5] and in assay [6] was over 100 µM throughout. For the same compound, the TGI in [7], in assay [8] and in [9] was over 100 µM throughout.

Turning to `COC(=O)c1cc2c3ccccc3n(C(C)=O)c2cn1`, the TGI in assay [1], in assay [2], in assay [3], in assay [4], in assay [5] and in [6] was over 100 µM in each case. In addition, the TGI in assay [7], in assay [8] and in assay [9] was over 100 µM in each case.

Take `O=C1c2ccccc2C(=O)C1(Cl)C1(S(=O)(=O)O)c2ccccc2-c2ccccc21`: the TGI in assay [1], in assay [2], in assay [3], in assay [4], in assay [5] and in assay [6] was over 100 µM in each case. Also, the TGI in assay [7], in assay [8] and in [9] was over 100 µM each time.

As to `Cc1ccc(SC(C)/C=C/NNC2=NC(c3ccccc3)C(c3ccccc3)=NN2)cc1` (configuration not stated), the TGI is over 100 µM in [1]; over 100 µM in assay [2]; 98.2 µM in assay [3]; over 100 µM in assay [4]; over 100 µM in assay [5]; 27.6 µM in [6]. For the same compound, the TGI is 42.5 µM in assay [7], over 100 µM in [8] and 57.5 µM in [9].

For the compound `COC(=O)C(C(=O)C(=O)Nc1cccc(OC)c1)c1cnc2ccccc2n1` (configuration not stated), the TGI in assay [2], in assay [3], in assay [4], in assay [5], in assay [6] and in assay [7] was over 100 µM each time. Moreover, the TGI in assay [8] and in assay [9] was over 100 µM each time.

Consider `Cc1ccccc1N1C(=O)/C(=C/c2ccc(N(CCC#N)CCC#N)cc2)N=C1c1cc([N+](=O)[O-])ccc1Cl`, for which the TGI in [2] was over 100 µM; in assay [3], over 100 µM; in [4], 72 µM; in [5] it was over 100 µM; in assay [6], over 100 µM; in [7], over 100 µM. The same compound returned a TGI in assay [9] of over 100 µM.

On to `CCCCOC(=O)C1C(c2ccc(Cl)cc2)NC(c2ccc(Cl)cc2)C(C(=O)OCCCC)S1(=O)=O` (configuration not stated), for which the TGI in assay [1], in assay [2], in assay [3], in assay [4], in [5] and in assay [6] was over 100 µM in each case. Besides, the TGI in assay [7] and in assay [9] was over 100 µM each time.

As to `COc1ccc(C2S/C(=C\c3ccccc3O)C(=O)N2NC(=O)Cc2ccccc2)cc1` (configuration not stated), the TGI in [1], in assay [2], in [4], in assay [5], in assay [7] and in [8] was over 100 µM throughout. For the same compound, the TGI in [9] was over 100 µM.

Consider `O=c1n(CC2CO2)c(=O)n(CC2CO2)c(=O)n1CC1CO1` (configuration not stated), for which the TGI in [1] was 113 µM; in assay [3] it was 27 µM and 108 µM and > 100 µM; in [4], 78.4 µM and 52.2 µM and 25.5 µM; in assay [5] it was 143 µM; in assay [6], 201 µM; in assay [7], 28.1 µM and > 100 µM. Also, the TGI in [8] was 43.9 µM and 88.6 µM and > 100 µM; in assay [10], 63.8 µM and > 100 µM; in assay [9] it was 88.6 µM and 118 µM and > 100 µM. The GI50 in [3] was 11.4 µM and 21.2 µM; in assay [4], 25 µM and 11.1 µM; in [7], 5.21 µM and 2.39 µM; in assay [8], 12.3 µM and 10.2 µM; in assay [9], 21.1 µM and 6.42 µM.

In the case of `COc1ccc(OC)c(NC(=O)C(=O)NNC(=O)c2sc(NNC(C)=O)nc2C)c1`, the TGI in [1] is over 100 µM; in assay [2], 81.6 µM; in assay [3] it was over 100 µM; in assay [6], over 100 µM; in [7], 90.3 µM; in assay [8], over 100 µM. Besides, the TGI in [9] is over 100 µM.

On to `CCCCN(CCCC)CC(C(=O)Nc1ccc([N+](=O)[O-])cc1[N+](=O)[O-])/C(C)=N\NC(=S)NN` (configuration not stated), for which the TGI in [1], in assay [2], in assay [3], in [4], in assay [5] and in [6] was over 100 µM throughout. Besides, the TGI in assay [7], in assay [8] and in assay [9] was over 100 µM in each case.

As for `CC1=CC(/C=C(\C)CCCc2ccoc2)C2(OC(=O)C(C)=C2O)[C@H]2C1CC[C@@H]2C` (some centres not stated), the TGI in [1] is 90.6 µM; in [2], 58.8 µM; in assay [3], 74.2 µM; in assay [4], 47 µM; in [5] it was over 100 µM; in assay [8], 38.1 µM. The TGI in [9] was 31 µM.

As for `O=[n+]1c2c(n([O-])c3ccccc31)CCCCCCCCCC2`, the TGI in assay [1], in assay [2], in assay [5], in assay [6], in assay [7] and in assay [8] was over 100 µM each time. Further, the TGI in assay [9] was over 100 µM.

In the case of `CC1=Nc2ccccc2C1C(Cc1ccccc1N)c1c(C)[nH]c2ccccc12` (configuration not stated), the TGI in assay [1] turned out to be 33.1 µM; in assay [2] it was 32.2 µM; in assay [3] it was 30.2 µM; in assay [4], 30.2 µM; in assay [5], 35.4 µM; in [6], 28.2 µM. The figures for the TGI in [7], in assay [8] and in [9] were 35.7 µM, 30.6 µM and 31.8 µM, respectively.

Regarding `COC(=O)C1=C(c2ccc3c(c2)OCO3)O[C@H](c2cc(OC)c(OC)c(OC)c2)[C@H]1COC(C)=O`, the TGI in assay [1] was 27.9 µM; in [2] it was 36.3 µM; in assay [3], 19.6 µM; in assay [4] it was 3.02 µM; in assay [5], over 100 µM; in [6], 8.72 µM. Also, the values for the TGI in [7], in [8] and in assay [9] were 32.5 µM, 19.6 µM and 31.6 µM, respectively.

Take `CC(C)(C)[SiH]12(OC(C(F)(F)F)(C(F)(F)F)c3ccccc31)OC(C(F)(F)F)(C(F)(F)F)c1ccccc12`: the TGI in assay [1] worked out at 26.4 µM; in assay [2], 16.2 µM; in assay [3], 12.9 µM; in [4] it was 21 µM; in [5], 13.3 µM; in assay [6] it was 7.83 µM. In addition, the values for the TGI in [8] and in [9] were 13 µM and 19.2 µM, respectively.

Regarding `CC(=O)O.CC(=O)O.CC(=O)O.CC(=O)O.CC(=O)O.CC(=O)O.O.[Ti].[Ti]`, the GI50 in assay [2] is over 100 µM; in assay [3] it was over 100 µM; in assay [4], over 100 µM; in assay [5], over 100000 nM; in [6] it was over 100000 nM; in assay [7], over 100 µM. Besides, the GI50 in assay [8] and in assay [9] was over 100 µM throughout. In addition, the TGI in [2], in assay [3], in assay [4], in assay [5], in assay [6] and in assay [7] was over 100 µM in each case. For the same compound, the TGI in assay [8] and in assay [9] was over 100 µM each time.

With `Cc1ccc(S(=O)(=O)NCC2CCCCC2=O)cc1` (configuration not stated), the TGI in [1], in assay [2], in [4], in [6], in [7] and in assay [8] was over 100 µM in each case. In assay [9], this compound yielded a TGI of over 100 µM.

Regarding `CC(C)(C)OC(=O)NCC(=O)OCc1ccccc1`, the TGI in [1], in assay [2], in assay [3], in [4], in assay [5] and in assay [7] was over 100 µM each time. Moreover, the TGI in assay [8] and in [9] was over 100 µM each time.

Consider `O=S(O)CCCCSSCC(O)C(O)CSSCCCCS(=O)O` (configuration not stated), for which the TGI in assay [1] was 15.6 µM and 29.7 µM; in assay [2], 22.5 µM and 30.5 µM; in assay [4] it was 29 µM and 39.5 µM; in assay [5], over 100 µM; in [6], over 100 µM; in assay [7], 53.9 µM and > 100 µM. Also, in assay [9], the TGI was 67.3 µM and 79.5 µM.

`C=CC1CC12C(=O)C1OC2(C)C2C(=O)c3cc4ccccc4cc3C(=O)C12` (configuration not stated): the GI50 in assay [3] is 24.6 µM; in [4], 44.7 µM; in assay [7] it was 24.7 µM; in [8], 33.5 µM; in [10] it was 26.3 µM; in [9], 53.3 µM. In addition, the TGI in assay [3] was over 100 µM; in assay [4], over 100 µM; in [7] it was 65.3 µM; in [8] it was over 100 µM; in assay [10], 77.8 µM; in [9] it was over 100 µM.

With `O=C1c2ccccc2C2(Br)C(=O)c3ccccc3C12` (configuration not stated), the TGI in assay [1], in assay [2], in [3], in assay [4], in [5] and in assay [6] was over 100 µM in each case. The TGI in assay [7] and in assay [9] was over 100 µM each time.

Consider `COCCOc1cc(F)c2c(Nc3ccc(NC(=O)Cn4cc(C(C)C)nn4)cc3)ncnc2c1`, for which the GI50 is over 100 µM in [3]; over 100 µM in assay [4]; over 100 µM in assay [7]; 57.9 µM in [8]; over 100 µM in assay [10]; over 100 µM in assay [9]. Moreover, the TGI in assay [3], in assay [4], in assay [7], in [8], in assay [10] and in [9] was over 100 µM throughout.

On to `O=C1CN=C(C[N+](=O)[O-])c2ccccc21`, for which the TGI in assay [2], in assay [4], in assay [5], in [6], in [7] and in assay [8] was over 100 µM each time. In assay [9], this compound came in with a TGI of over 100 µM.
